Measurements taken from PMC3635830 (Biochemistry, 2013).

Molecular target: tryptophan 2-monooxygenase (TMO) (Pseudomonas savastanoi, UniProt P06617)
Experiment: X-ray crystal structure, […] Å
Conditions: FAD-binding domain; IAM also bound

tryptophan 2-monooxygenase (TMO), sequence (P06617 whole entry): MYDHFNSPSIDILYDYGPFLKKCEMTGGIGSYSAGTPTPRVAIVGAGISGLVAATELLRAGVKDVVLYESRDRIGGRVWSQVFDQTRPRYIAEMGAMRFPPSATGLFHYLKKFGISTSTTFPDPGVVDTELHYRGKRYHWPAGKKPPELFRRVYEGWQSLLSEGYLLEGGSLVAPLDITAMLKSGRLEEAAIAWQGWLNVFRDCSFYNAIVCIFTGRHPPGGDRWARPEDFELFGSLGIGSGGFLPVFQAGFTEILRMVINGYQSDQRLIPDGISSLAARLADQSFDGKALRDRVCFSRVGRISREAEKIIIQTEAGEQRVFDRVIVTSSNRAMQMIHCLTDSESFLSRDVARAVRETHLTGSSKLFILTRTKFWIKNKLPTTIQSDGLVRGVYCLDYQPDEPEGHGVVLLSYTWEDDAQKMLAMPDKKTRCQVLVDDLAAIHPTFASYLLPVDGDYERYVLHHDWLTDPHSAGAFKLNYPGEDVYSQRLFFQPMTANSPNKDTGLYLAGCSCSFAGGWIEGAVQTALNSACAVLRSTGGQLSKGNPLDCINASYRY

For `Cc1cc2nc3c(=O)[nH]c(=O)nc-3n(C[C@H](O)[C@H](O)[C@H](O)COP(=O)(O)OP(=O)(O)OC[C@H]3O[C@@H](n4cnc5c(N)ncnc54)[C@H](O)[C@@H]3O)c2cc1C` [FAD], the “X-ray crystal structure, 1.95 Å” value was “The FAD cofactor and the bound indole-3-acetamide occupy a large internal cavity”.
